Data from patent publication US12383158B2, “Detection of high-risk unstable atherosclerotic plaque” (The Heart Research Institute Ltd, priority 2018, dated 2025).

Key:
[1] = target: T1, MPO activity in atherosclerotic plaque (Mus musculus, UniProt P11247); settings: for CNR of unstable plaque in the right carotid artery, 30 min after contrast injection / CNR of unstable plaque in the right carotid artery, 60 min after contrast injection: mean±SD
T1 sequence (P11247 139-718): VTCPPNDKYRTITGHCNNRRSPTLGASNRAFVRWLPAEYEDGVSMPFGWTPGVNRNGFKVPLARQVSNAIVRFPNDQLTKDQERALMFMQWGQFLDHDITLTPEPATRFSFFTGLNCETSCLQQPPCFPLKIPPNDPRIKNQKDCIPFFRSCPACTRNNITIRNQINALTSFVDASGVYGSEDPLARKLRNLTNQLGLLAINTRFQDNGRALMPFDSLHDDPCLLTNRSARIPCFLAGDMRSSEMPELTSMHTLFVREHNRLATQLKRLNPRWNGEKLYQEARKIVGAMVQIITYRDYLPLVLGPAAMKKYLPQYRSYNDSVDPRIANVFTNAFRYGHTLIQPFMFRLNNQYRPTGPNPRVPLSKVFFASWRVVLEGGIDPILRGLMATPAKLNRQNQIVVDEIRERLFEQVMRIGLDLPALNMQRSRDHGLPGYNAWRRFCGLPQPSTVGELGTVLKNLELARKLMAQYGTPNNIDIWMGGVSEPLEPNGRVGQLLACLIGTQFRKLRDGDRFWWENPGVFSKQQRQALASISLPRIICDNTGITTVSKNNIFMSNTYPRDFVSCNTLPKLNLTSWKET
Description: Scheme of action of bis-5HT-DTPA-Gd (MPO-Gd) and magnetic resonance imaging protocol. A, In the presence of H2O2, MPO oxidises the 5-hydroxytryptamine moiety of MPO-Gd to a phenoxyl radical, which then can give rise to either an MPO-Gd dimer or multimer (not shown) to amplify the signal. The phenoxyl radical-containing MPO-Gd may also covalently bind to proteins. […] B, Mice were imaged under isoflurane anaesthesia. Initial acquisition involved a localiser, time-of-flight and T1-weighted turbo spin echo (T1-TSE) imaging. Approximately 30 μmin after acquisition of baseline images, MPO-Gd (0.3 mmol/kg) was injected intravenously via the tail vein. Consecutive T1-TSE images were then acquired for 60 μmin following contrast injection. Segmental analysis of MPO activity was assessed by calculating the ΔCNR (CNRpost-contrast−CNRpre-contrast) for unstable and stable plaque, and non-diseased arterial segments.
At 7 weeks following TS surgery, isoflurane-anaesthetised mice were imaged in the prone position using a 9.4T Bruker Biospec 94/20 Avance III system (Bruker, Ettlingen, Germany) with a 50-mm quadrature radiofrequency coil and respiratory-gated image acquisition. Mice were imaged before and after intravenous administration of 0.3 μmmol/kg of the MPO sensor bis-5-hydroxytryptamide-DTPA Gd (MPO-Gd) or DTPA-Gd (Magnevist, Bayer, Leverkusen, Germany) via a tail vein catheter. Prior to contrast injection, a flow-compensated 2D-FLASH time-of-flight (TOF) angiography in a coronal slice orientation was performed to assess intra-vessel (luminal) volume and geometry using a flow compensated 2D-GRE sequence (FLASH) for time-of-flight (TOF) angiography in an axial slice orientation with the following major parameters: TR 34 μms, TE 3 μms, slice thickness 0.5 μmm, interslice distance 0.35 μmm, 40 slices, matrix size 128×128, FOV 20×20 μmm, in-plane resolution 156×156 μm. This was followed by a T1-weighted fast spin echo (TurboRARE, T1-TSE) acquired in the same orientation with the following parameters: TR 1500 μms, TE 8.5 μms, ETL 8, slice thickness 1 μmm, FOV 20×20 μmm, matrix size 192×192, in-plane resolution 104×104 μm. This T1-TSE protocol was then repeated in a scan series covering a period of one hour following contrast injection to assess contrast agent inflow and retention. OsiriX (Version 7.0, Pixmeo, Switzerland) was used for image analysis. In T1-TSE images, separate regions of interest were assigned to the vessel wall, skeletal muscle (reference) and background (air). The contrast-to-noise ratio (CNR) was calculated as follows: CNR=(SIvessel wall−SIskeletal muscle)/SDbackground The mean CNRs of three consecutive slices in plaque with unstable phenotype and corresponding segments of the left carotid artery (plaque-free), in addition to 1-2 consecutive slices in the brachiocephalic trunk (stable plaque, SP), were calculated. Segmental enhancement attributable to MPO was assessed by calculating the ΔCNR=CNRpost-contrast−CNRpre-contrast.

[2] = mouse, in vivo
Protocol: Nuclear microscopy experiments were performed at the Centre for Ion Beam Applications at the National University of Singapore, as described previously.6 Briefly, the samples were mounted onto a 3-axis stage within a scattering chamber maintained at <5×10−6 μmbar. A collimated proton beam (H+) at 2.1 MeV was generated using a 3.5 MV Singletron accelerator and kept incident onto the samples inclined at 45 degrees to the incident beam. The broad incident ion beam was focused down to a spot size of 1 μm and scanned across the region of interest. […]
PIXE data was collected using a Si(Li) detector placed at 20 μmm from the samples to the Si(Li) crystal face. RBS and STIM data were measured by a passivated implanted planar silicon (PIPS) detector. […]
Scanning transmission ion microscopy provides structural maps based on the energy lost by the protons as they pass through the relatively thin organic samples with thicknesses of 30 μm or less, enabling structural identification without fixing or staining. Trace elemental mapping was performed using particle-induced X-ray emission, which simultaneously provides multiple elements with high quantitative accuracy and sensitivity to a few parts per million in biological materials. […]

[3] = TS Apoe−/− mice, 0.3 mmol/kg i.v.

Row | enhancement of the right carotid artery in TS Mpo−/−Apoe−/− mice ([1]; 60 min, compared with Apoe−/− mice) | enhancement of the non-diseased vessel wall of the left carotid artery [1, 3] | CNR of unstable plaque in the right carotid artery, 30 min after contrast injection [1, 3] | CNR of unstable plaque in the right carotid artery, 60 min after contrast injection [1, 3] | period within which the enhancing material is washed out/eliminated from Segment I ([1]; mouse, in vivo) [weeks] | plaque specificity of enhancement 1 week after TS surgery ([1]; unstable plaque (Segment I) vs stable plaque (brachiocephalic artery)) | Gd content of unstable plaque [2] | Compound | enhancement of the brachiocephalic artery (stable plaque) [1, 3]
1 | attenuated enhancement | no significant enhancement | 23.7±6.8 | 25±6.4 | < 2 | seen only in unstable plaque | significant accumulation of Gd | O=C([O-])CN(CCN(CC(=O)[O-])CC(=O)NCCc1c[nH]c2ccc(O)cc12)CCN(CC(=O)[O-])CC(=O)NCCc1c[nH]c2ccc(O)cc12.[Gd+3] [MPO-Gd, bis-5-hydroxytryptamide-DTPA Gd] | did not result in significant sustained enhancement
2 | – | – | 19.2±7.2 | 13.4±3.6 | – | – | – | CNC[C@H](O)[C@@H](O)[C@H](O)[C@H](O)CO.CNC[C@H](O)[C@@H](O)[C@H](O)[C@H](O)CO.O=C([O-])CN(CCN(CC(=O)[O-])CC(=O)O)CCN(CC(=O)[O-])CC(=O)O.[Gd+3] [DTPA-Gd] | –
